Assay results as given in patent US20240308995A1, “O-GLYCOPROTEIN-2-ACETAMIDO-2-DEOXY-3-D-GLUCOPYRANOSIDASE INHIBITORS” (BIOGEN MA INC., priority 2018, published 2024).
Where two headings read alike, the source gives them in different places.

Tests used:
[1] = molecular target: Recombinant full length human OGA enzyme (Homo sapiens (Human), UniProt O60502); assay: OGA Enzyme Inhibition Biochemical Assay; conditions: 1 nM OGA, 100 μM 4-MUGlcNAc, pH 6.4
Outline: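 Full-length recombinant human OGA with fluorogenic 4-MUGlcNAc in McIlvaine buffer pH 6.4, 0.01% BSA; 90 min at room temperature, glycine pH 10 quench, fluorescence Ex 355/Em 460 nm. 10-point, 4-fold dilution from 20 μM; 4-parameter variable-slope fit.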

[2] = molecular target: OGA (S400 O-GLCNAC), HEK-293T cells transfected with Tau-V5 (Homo sapiens (Human), UniProt O60502); assay: Cellular OGA-Tau MSD Assay; type: cell-based
Chain of OGA (S400 O-GLCNAC), HEK-293T cells transfected with Tau-V5 (O60502 whole entry): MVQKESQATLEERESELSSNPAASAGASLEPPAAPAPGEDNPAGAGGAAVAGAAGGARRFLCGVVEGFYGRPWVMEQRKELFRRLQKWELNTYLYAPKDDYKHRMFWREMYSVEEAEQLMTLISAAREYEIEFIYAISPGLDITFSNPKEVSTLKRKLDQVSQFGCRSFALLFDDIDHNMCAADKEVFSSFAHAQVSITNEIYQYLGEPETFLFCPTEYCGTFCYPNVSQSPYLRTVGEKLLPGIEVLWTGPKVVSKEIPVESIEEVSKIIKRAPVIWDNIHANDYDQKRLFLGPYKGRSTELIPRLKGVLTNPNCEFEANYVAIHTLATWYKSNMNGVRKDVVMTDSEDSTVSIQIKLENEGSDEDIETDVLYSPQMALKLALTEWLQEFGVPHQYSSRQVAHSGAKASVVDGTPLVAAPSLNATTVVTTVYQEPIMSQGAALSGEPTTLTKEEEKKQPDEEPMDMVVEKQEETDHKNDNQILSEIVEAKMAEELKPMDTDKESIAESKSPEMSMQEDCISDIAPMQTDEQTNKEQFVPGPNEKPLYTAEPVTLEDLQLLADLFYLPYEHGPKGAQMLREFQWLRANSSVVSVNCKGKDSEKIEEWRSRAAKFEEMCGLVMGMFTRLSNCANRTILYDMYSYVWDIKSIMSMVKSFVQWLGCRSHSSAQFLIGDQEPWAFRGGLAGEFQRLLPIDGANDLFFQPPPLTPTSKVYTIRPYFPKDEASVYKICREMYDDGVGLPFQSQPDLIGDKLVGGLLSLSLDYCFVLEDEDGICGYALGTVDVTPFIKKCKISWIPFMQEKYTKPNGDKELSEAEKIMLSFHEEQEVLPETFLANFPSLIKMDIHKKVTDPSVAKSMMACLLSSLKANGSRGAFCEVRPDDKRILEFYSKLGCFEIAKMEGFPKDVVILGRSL
Outline: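 HEK-293T cells transfected with OGA and Tau-V5 plasmids were treated overnight at 37° C with a 10-point, 3-fold titration from 1 uM. Lysates went onto V5-antibody MSD plates to capture Tau, probed with a Tau O-GlcNAc antibody and read by electrochemiluminescence; IC50 from a 4-parameter fit.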

[3] = Rat Liver Microsome Stability Assay; type: in vitro ADME; conditions: rat liver microsomes, 1 uM compound
P-gp (MDR1) = assay: MDR1-MDCK Efflux Ratio Assay; type: in vitro ADME; conditions: dog, read-out: MDR1-MDCK Efflux Ratio (B-A/A-B)
Outline: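 Bidirectional (apical↔basolateral) transport across confluent MDR1-MDCK monolayers in HBSS/10 mM HEPES pH 7.4, receiver buffer with 1% BSA; 2 hr at 37° C, 5% CO2. Donor sampled at 0 and 120 min, receiver at 120 min, quantified by LC-MS/MS in triplicate. Papp, efflux ratio and percent recovery calculated.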

[4] = HEK-293T cells, Tau-S400-GlcNAc MSD readout
[5] = MDCK-MDR1, pH 7.4, MDR1-MDCK cells, 2 hr, pH 7.4

Chain of Recombinant full length human OGA enzyme (O60502 whole entry): as above

SMILES	IC50 [1] [nM]	IC50 [2, 4] [nM]	RLM % Qh (%) [3] [%]	efflux ratio at 2 h (P-gp (MDR1); [5])	IC50 ([2]; repeated assay, value marked with asterisk (*)) [nM]	efflux ratio at 2 h (P-gp (MDR1); MDCK-MDR1, pH 7.4, repeated assay, value marked with asterisk (*))
CC(=O)Nc1ncc(CN2C[C@@H](Oc3cc(C)nc(C)c3)C[C@H]2C)s1 [Example 1-63, N-(5-(((2R,4S)-4-((2,6-dimethylpyridin-4-yl)oxy)-2-methylpyrrolidin-1-yl)methyl)thiazol-2-yl)acetamide]	420	> 1000	16	45.3		
CC(=O)Nc1nc(F)c(CN2C[C@H](Oc3cnc(C(F)F)cn3)C[C@@H]2C)s1 [Example 1-113, N-(5-(((2S,4R)-4-((5-(difluoromethyl)pyrazin-2-yl)oxy)-2-methylpyrrolidin-1-yl)methyl)-4-fluorothiazol-2-yl)acetamide]	2.1	5	61	2.1		
CC(=O)Nc1ncc(CN2C[C@H](Oc3cc(OC(C)C)ncn3)C[C@@H]2C)s1 [Example 1-127, N-(5-(((2S,4R)-4-((6-isopropoxypyrimidin-4-yl)oxy)-2-methylpyrrolidin-1-yl)methyl)thiazol-2-yl)acetamide]	1.9	8	62	3.1		
CC(=O)Nc1ncc(CN2CC[C@@H](Oc3cc(C)nc(C)c3)C2)s1 [Example 1-59, (R)—N-(5-((3-((2,6-dimethylpyridin-4-yl)oxy)pyrrolidin-1-yl)methyl)thiazol-2-yl)acetamide]	1.9	8	55	22.2		
COc1ncnc(O[C@@H]2C[C@H](C)N(Cc3cnc(NC(C)=O)s3)C2)c1C [Example 1-71, N-(5-(((2S,4R)-4-((6-methoxy-5-methylpyrimidin-4-yl)oxy)-2-methylpyrrolidin-1-yl)methyl)thiazol-2-yl)acetamide]	1.7	16	76	3.5		
CCC(=O)Nc1nc(F)c(CN2CC[C@@H](Oc3cc(OC)ncn3)C2)s1 [Example 1-45, (R)—N-(4-fluoro-5-((3-((6-methoxypyrimidin-4-yl)oxy)pyrrolidin-1-yl)methyl)thiazol-2-yl)propionamide]	47	966	61	1.7		
CC(=O)Nc1ncc(CN2CC[C@@H](Oc3ccc(F)cn3)C2)s1 [Example 1-6, (R)—N-(5-((3-((5-fluoropyridin-2-yl)oxy)pyrrolidin-1-yl)methyl)thiazol-2-yl)acetamide]	80	37	40	1.7		
CC(=O)Nc1ncc(CN2C[C@@H](Oc3ccc(F)cn3)C[C@H]2C)s1 [Example 1-8, N-(5-(((2R,4S)-4-((5-fluoropyridin-2-yl)oxy)-2-methylpyrrolidin-1-yl)methyl)thiazol-2-yl)acetamide]	460	> 1000	76	2.3		
CC(=O)Nc1ncc(CN2C[C@@H](Oc3cc(C)nc(C)c3)C[C@@H]2C)s1 [Example 1-62, N-(5-(((2S,4S)-4-((2,6-dimethylpyridin-4-yl)oxy)-2-methylpyrrolidin-1-yl)methyl)thiazol-2-yl)acetamide]	26	89	32	65		
CC(=O)Nc1ncc(CN2C[C@H](Oc3cc(OC4COC4)ncn3)C[C@@H]2C)s1 [Example 1-124, N-(5-(((2S,4R)-2-methyl-4-((6-(oxetan-3-yloxy)pyrimidin-4-yl)oxy)pyrrolidin-1-yl)methyl)thiazol-2-yl)acetamide]	< 1	3	16	11.2		
COc1cc(O[C@H]2CCCN(Cc3cnc(NC(C)=O)s3)C2)ncn1 [Example 1-41, (S)—N-(5-((3-((6-methoxypyrimidin-4-yl)oxy)piperidin-1-yl)methyl)thiazol-2-yl)acetamide]	24	29	80	4.3		

Other lines, results leading:

IC50 [1] [nM]	IC50 [2, 4] [nM]	RLM % Qh (%) [3] [%]	efflux ratio at 2 h (P-gp (MDR1); [5])	IC50 ([2]; repeated assay, value marked with asterisk (*)) [nM]	efflux ratio at 2 h (P-gp (MDR1); MDCK-MDR1, pH 7.4, repeated assay, value marked with asterisk (*))	SMILES
< 1	1	95	2.2			COc1cccc(O[C@@H]2C[C@H](C)N(Cc3sc(NC(C)=O)nc3F)C2)n1 [Example 1-99, N-(4-fluoro-5-(((2S,4R)-4-((6-methoxypyridin-2-yl)oxy)-2-methylpyrrolidin-1-yl)methyl)thiazol-2-yl)acetamide]
< 1		63	2.9	7	3	CC(=O)Nc1ncc(CN2C[C@H](Oc3ccnc(OC(F)F)c3)C[C@@H]2C)s1 [Example 1-20, N-(5-(((2S,4R)-4-((2-(difluoromethoxy)pyridin-4-yl)oxy)-2-methylpyrrolidin-1-yl)methyl)thiazol-2-yl)acetamide]
< 1	19	35	6.2			[2H]c1nc(NC(C)=O)sc1CN1C[C@H](Oc2cc(OC)ncn2)C[C@@H]1C (single isomer, unassigned) [Example 1-162]
< 1	3	88	1.5			CC(=O)Nc1nc(F)c(CN2C[C@H](Oc3cc(Cl)ccn3)C[C@@H]2C)s1 [Example 1-101, N-(5-(((2S,4R)-4-((4-chloropyridin-2-yl)oxy)-2-methylpyrrolidin-1-yl)methyl)-4-fluorothiazol-2-yl)acetamide]
< 1	1	93	2.1			COc1ccc(O[C@@H]2C[C@H](C)N(Cc3sc(NC(C)=O)nc3F)C2)nc1 [Example 1-98, N-(4-fluoro-5-(((2S,4R)-4-((5-methoxypyridin-2-yl)oxy)-2-methylpyrrolidin-1-yl)methyl)thiazol-2-yl)acetamide]
< 1	10	34	18.9			CC(=O)Nc1nc(F)c(CN2CC[C@@H](Oc3cc(C)nc(C)c3)C2)s1 [Example 1-49, (R)—N-(5-((3-((2,6-dimethylpyridin-4-yl)oxy)pyrrolidin-1-yl)methyl)-4-fluorothiazol-2-yl)acetamide]
< 1	2	79	3.4			CC(=O)Nc1nc(F)c(CN2C[C@H](Oc3cnc(C)cn3)C[C@@H]2C)s1 [Example 1-108, N-(4-fluoro-5-(((2S,4R)-2-methyl-4-((5-methylpyrazin-2-yl)oxy)pyrrolidin-1-yl)methyl)thiazol-2-yl)acetamide]
< 1	1	47	22.4			CC(=O)Nc1nc(F)c(CN2C[C@H](Oc3cc(C)nc(C)c3)C[C@@H]2C)s1 [Example 1-50, N-(5-(((2S,4R)-4-((2,6-dimethylpyridin-4-yl)oxy)-2-methylpyrrolidin-1-yl)methyl)-4-fluorothiazol-2-yl)acetamide]
< 1	2	82	1.2			CC(=O)Nc1nc(F)c(CN2C[C@H](Oc3cc(F)c(F)cn3)C[C@@H]2C)s1 [Example 1-102, N-(5-(((2S,4R)-4-((4,5-difluoropyridin-2-yl)oxy)-2-methylpyrrolidin-1-yl)methyl)-4-fluorothiazol-2-yl)acetamide]
< 1	2	42	14.3			CC(=O)Nc1nc(F)c(CN2C[C@H](Oc3ncccn3)C[C@@H]2C)s1 [Example 1-93, N-(4-fluoro-5-(((2S,4R)-2-methyl-4-(pyrimidin-2-yloxy)pyrrolidin-1-yl)methyl)thiazol-2-yl)acetamide]
< 1	2	48	3.8			CCOc1cc(O[C@@H]2C[C@H](C)N(Cc3cnc(NC(C)=O)s3)C2)ncn1 [Example 1-126, N-(5-(((2S,4R)-4-((6-ethoxypyrimidin-4-yl)oxy)-2-methylpyrrolidin-1-yl)methyl)thiazol-2-yl)acetamide]
< 1	3	57	2.9			COc1cnc(O[C@@H]2C[C@H](C)N(Cc3cnc(NC(C)=O)s3)C2)cn1 [Example 1-73, N-(5-(((2S,4R)-4-((5-methoxypyrazin-2-yl)oxy)-2-methylpyrrolidin-1-yl)methyl)thiazol-2-yl)acetamide]
< 1	1	81	6.9			COc1cc(O[C@H]2CC[C@H](C)N(Cc3cnc(NC(C)=O)s3)C2)ncn1 [Example 1-43, N-(5-(((2S,5S)-5-((6-methoxypyrimidin-4-yl)oxy)-2-methylpiperidin-1-yl)methyl)thiazol-2-yl)acetamide]
